IC50 data for 13 compounds are collected here from patent publication US10005767B2, “Compositions and methods for inhibition of the JAK pathway” (Rigel Pharmaceuticals, Inc., priority 2009, dated 2018).

pIC50: −log10 of the molar value. Counter-ions that a name gives are not always drawn.

The first assay has as its system human primary T-cells, IL-2 stimulated proliferation (JAK-1 and JAK-3 dependent; reported as JAK3 activity). In words: Human primary T-cell proliferation stimulated by IL-2 (Example 3). It counts as cell-based. The conditions noted are these: Homo sapiens, T-cell, tested under conditions described in Example 3 (IL-2 stimulated human primary T-cell proliferation); read-out: ability to inhibit JAK3 activity, IC50 range (Table V). The essentials: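 Peripheral-blood human T-cells pre-activated via TCR/CD28, IL-2-starved overnight, then cultured 72 h at 37 °C with compound in Yssel's medium containing IL-2 (80 U/mL in cell suspension). Proliferation read as viable-cell ATP by CellTiter-Glo luminescence; reduction versus control taken as JAK pathway inhibition.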
In general, pIC50 refers to the IC50 on a negative log10 scale, so that one unit is a factor of ten. `Cc1cnc(Nc2ccccc2)nc1Nc1ccc2oc(=O)[nH]c2c1` [Compound I-174, 5-(5-Methyl-2-phenylamino-pyrimidin-4-ylamino)-3H-benzooxazol-2-one]: the pIC50 was > 6.30. Same read-out and setting: the result for `COCCN1C(=O)C(C)(C)Oc2cc(Nc3ncc(C)c(Nc4ccc5oc(=O)[nH]c5c4)n3)cnc21` [IV-45, N2-[2,2-dimethyl-4-(2-methoxyethyl)-2H-pyrido[3,2-b][1,4]oxazin-3(4H)-one-7-yl]-5-methyl-N4-(2-oxo-2,3-dihydro-1,3-benzoxazol-5-yl)-2,4-pyrimidinediamine] reads > 6.30. As to `COc1cc(Nc2ncc(C)c(Nc3ccc4oc(=O)[nH]c4c3)n2)cc(C)c1OC` [Compound I-452, 5-(2-(3,4-dimethoxy-5-methylphenylamino)-5-methylpyrimidin-4-ylamino)benzo[d]oxazol-2(3H)-one], the pIC50 was > 6.30. Turning to `Cc1cnc(Nc2cnc(N3CCN(C)CC3)c(C)c2)nc1Nc1ccc2oc(=O)[nH]c2c1` [II-26, N4-(benzoxazolin-2-on-5-yl)-N2-[3-methyl-2-(4-methylpiperazin-1-yl)pyridin-5-yl]-5-methylpyrimidine-2,4-diamine], the negative logarithm of the IC50 (pIC50) was > 6.30.

As to `Cc1cnc(Nc2ccc(N3CCC4(CCN(C)C4)C3)nc2)nc1Nc1ccc2oc(=O)[nH]c2c1` (stereo not shown) [II-133, 5-methyl-N2-[2-(7-methyl-2,7-diazaspiro[4.4]nonan-2-yl)pyridin-5-yl]-N4-(2-oxo-2,3-dihydro-1,3-benzoxazol-5-yl)-2,4-pyrimidinediamine], the pIC50 was > 6.30. On the same count and under the same terms, for `COc1cc(C)cc(Nc2ncc(C)c(Nc3cc(C)c4oc(=O)n(COP(=O)(O)O)c4c3)n2)c1` [Compound I-536, Sodium (5-(2-(3-methoxy-5-methylphenylamino)-5-methylpyrimidin-4-ylamino)-7-methyl-2-oxobenzo[d]oxazol-3 (2H)-yl)methyl phosphate] the value was 5.00 to 5.30; for `Cc1cnc(Nc2ccc(-c3ccc(OCCCN(C)C)nc3)cc2)nc1Nc1ccc2oc(=O)[nH]c2c1` [Compound I-511, 5-(2-(4-(6-(3-(dimethylamino)propoxy)pyridin-3-yl)phenylamino)-5-methylpyrimidin-4-ylamino)benzo[d]oxazol-2(3H)-one trifluoroacetate salt], > 6.30.

The same assay, now with this note: tested under conditions described in Example 3 (IL-2 stimulated human primary T-cell proliferation); read-out: ability to inhibit JAK3 activity, IC50 range (Table V).
Regarding `Cc1cnc(Nc2cc(C)c(F)c(C)c2)nc1Nc1ccc2oc(=O)n(COP(=O)(O)O)c2c1` [Compound I-451, N2-(3,5-dimethyl-4-fluoro)phenyl-5-methyl-N4-[3-(phosphonooxy)methyl-2-oxo-2,3-dihydro-1,3-benzoxazol-5-yl]-2,4-pyrimidinediamine bis-sodium salt], the pIC50 is 5.30 to 6.30. Same read-out and setting: for `Cc1cnc(Nc2cccc(S(C)(=O)=O)c2)nc1Nc1ccc2oc(=O)n(C(C)C)c2c1` [Compound I-9, N4-(3-isopropylbenzo[d]oxazol-2(3H)-on-5-yl)-N2-((3-methylsulfonyl)phenyl)-5-methylpyrimidine-2,4-diamine] the value was > 6.30; for `CS(=O)(=O)Nc1ccc(Nc2ncc(F)c(Nc3ccc4oc(=O)[nH]c4c3)n2)cc1` [Compound I-53], > 6.30.

As to `Cc1cnc(Nc2ccc(S(N)(=O)=O)cc2)nc1Nc1ccc2[nH]c(=O)[nH]c2c1` [Compound I-12, N4-(benzimidazolin-2-on-5-yl)-N2-((4-aminosulfonyl)phenyl)-5-methylpyrimidine-2,4-diamine], the negative logarithm of the IC50 (pIC50) was < 5.00.

Regarding `Cn1c(=O)oc2ccc(Nc3nc(Nc4cccc(NS(C)(=O)=O)c4)ncc3F)cc21` [Compound I-79, N2-((3-methylsulfonylamino)phenyl)-N4-(3-methyl-2-oxo-2,3-dihydrobenzo[d]oxazol-5-yl)-5-fluoropyrimidine-2,4-diamine], the pIC50 is 5.30 to 6.30.

For the compound `Cc1cc(Nc2ncc(C)c(Nc3ccc4oc(=O)[nH]c4c3)n2)ccc1OC(C)(C)C(N)=O` [Compound I-391, N2-[4-(1-aminocarbonyl-1-methyl)ethoxy-3-methyl]phenyl-5-methyl-N4-(2-oxo-2,3-dihydro-1,3-benzoxazol-5-yl)-2,4-pyrimidinediamine], the negative logarithm of the IC50 (pIC50) is > 6.30.
